In patent US6194169A, “Enhanced expression of human platelet-derived growth factor in Pichia pastoris” (The University of Kentucky Research Foundation, priority 1998, dated 2001):

How the values were obtained:
[1] = tested on: human glioblastoma (U87) cells; assay: Tumor growth of stably transfected U87 cells in athymic nude mice; type: in vivo; conditions: 10^7 transfected U87 cells s.c. in athymic nude mice
Method: Transfections and stable expression in the human glioblastoma cell line U87 were performed using a liposomal reagent (Lipofectin™) (Gibco/BRL; Gaithersburg, Md.), as described. Cells were cultured in 162 cm^2 flasks in complete DMEM. On the day of injection, cells were removed by trypsinization, rinsed twice with Hanks balanced salt solution (HBSS, without phenol red; Gibco/BRL), and resuspended in 300 μL HBSS. Cells (10^7) from exponentially growing cultures of stable U87 transfectants were injected subcutaneously between the scapulae of 9-week-old athymic nude mice (Harlan Sprague-Dawley, nu/nu) using a 1 cc tuberculin syringe equipped with a 23-gauge needle. Two-dimensional measurements of tumors were obtained with vernier calipers.

[2] = PDGF-BB expressed in Saccharomyces cerevisiae, Craig et al. (1992); cited from earlier work
PDGF β-receptor [3] = assay: Radioreceptor assay (RRA), competition with [125I]PDGF-BB in R52 rat mesangial cells; type: binding; conditions: R52 cells (β isotype); [125I]PDGF-BB radioligand; Pichia-expressed protein; ALLFIT fit
Method: (§1) Radioreceptor assays were conducted in A204 and rat mesangial cells (RMC, R52 line) as described previously using 20,000 cpm of [^125 I]PDGF-BB (1200 Ci/mmol; Amersham, Buckinghamshire, England) as radioligand and unlabeled recombinant PDGF-BB proteins as competitor. Mitogenic activities of recombinant PDGF-BB proteins were determined by measuring [^3 H]thymidine incorporation into cells as described.

NR6 cells = assay: Mitogenesis, [3H]thymidine incorporation in NR6 cells; type: cell-based; conditions: NR6 cells (primarily α-receptors), ALLFIT fit
Method: as §1

PDGF α-receptor [4] = assay: In vitro PDGF receptor autophosphorylation in A204 cells; type: cell-based; conditions: 170 kDa PDGF receptor species
Method: In vitro assays of PDGF receptor autophosphorylation were conducted essentially as described. […] ATP (3000 Ci/mmol) for 10 min at 30° C. Immunoprecipitates were analyzed by SDS-PAGE (6% polyacrylamide).

PDGF β-receptor [5] = assay: In vitro PDGF receptor autophosphorylation in R52 cells; type: cell-based, rat; conditions: 170 kDa PDGF receptor species
Method: In vitro assays of PDGF receptor autophosphorylation were conducted essentially as described. A204 and R52 cells (obtained from the American Type Culture Collection (ATCC) were grown to near confluence on 100-mm plastic dishes and maintained in low mitogenicity medium for 24 h. Cells were pre-chilled at 4° C. for 60 min and then incubated with PDGF-BB preparations for 10 min at 4° C. Cell lysates were incubated with either anti-PDGFRα or anti-PDGFRβ IgG (Santa Cruz Biotechnologies) for 60 min at 4° C., centrifuged for 10 min and incubated in fresh tubes containing protein A-agarose (Sigma) for 60 min at 4° C. Kinase assays were performed in 25 μL kinase buffer (20 mM Tris HCl, 1 mM DTT, 10 mM MnCl2, pH 7.5) and 5 μCi [γ-^32 P] ATP (3000 Ci/mmol) for 10 min at 30° C. Immunoprecipitates were analyzed by SDS-PAGE (6% polyacrylamide).

[6] = Heparin-agarose in vitro batch binding assay; conditions: 200 mM NaCl, 40 mM Hepes pH 7.4; 3 μg protein; bound fraction by ELISA
Method: Mixtures containing 300 μL of a 50:50 slurry of heparin-agarose in 200 mM NaCl, 40 mM Hepes, pH 7.4 were incubated with 3 μg of PDGF-BB proteins for 15 min at 23° C. Supernatants were obtained by microcentrifugation and collected with a 23 G needle. Pellets were washed with 300 μL of buffer, which was combined with the first supernatant ("unbound" PDGF). Pellets were then washed twice with 150 μL of buffer containing 1 M NaCl, and supernatants were pooled (high salt wash fraction, or "bound" PDGF). PDGF-BB content of bound and unbound fractions were determined by ELISA.

PDGF α-receptor [7] = assay: Radioreceptor assay (RRA), competition with [125I]PDGF-BB in A204 cells; type: binding; conditions: A204 cells (α isotype only); [125I]PDGF-BB radioligand; Pichia-expressed protein; ALLFIT fit
Method: as §1

| Substance | effect of overexpression on U87 tumor growth in vivo vs Neo controls (in words) [1] | Structure (%) Beta [2] [%] | Structure (%) Helix [2] [%] | Structure (%) Random [2] [%] | RRA: IC50 β (PDGF β-receptor [3]) [ng/mL] | Mitogenesis ED50 (NR6 cells) [ng/mL] | induction of α-receptor autophosphorylation (in words) (PDGF α-receptor [4]) | induction of β-receptor autophosphorylation (in words) (PDGF β-receptor [5]) | heparin-binding, protein in the bound fraction [6] [%] | RRA: IC50 α (PDGF α-receptor [7]) [ng/mL] |
| --- | --- | --- | --- | --- | --- | --- | --- | --- | --- | --- |
| A-WT-RKK: wild-type PDGF A-chain overexpressed from cDNA in stably transfected U87 cells | not significantly different |  |  |  |  |  |  |  |  |  |
| PDGF-BB: wild-type human PDGF-BB expressed in Saccharomyces cerevisiae, CD data as reported by Craig et al. (1992) |  | 51.0 | 4.0 | 45.0 |  |  |  |  |  |  |
| WT-RKK: human PDGF B-chain (PDGF-BB homodimer) with wild-type loop III residues Arg Lys Lys (RKK) | not significantly different |  |  |  | 4.0 | 52 | dose-dependent autophosphorylation | dose-dependent autophosphorylation | ~100 | 9.2 |
